Publication PMC3089467 (Nucleic Acids Research, 2011)

Target: T1, HhaI DNA cytosine-5 methyltransferase (M.HhaI) (Haemophilus parahaemolyticus, UniProt P05102)
T1 sequence (P05102 1-327): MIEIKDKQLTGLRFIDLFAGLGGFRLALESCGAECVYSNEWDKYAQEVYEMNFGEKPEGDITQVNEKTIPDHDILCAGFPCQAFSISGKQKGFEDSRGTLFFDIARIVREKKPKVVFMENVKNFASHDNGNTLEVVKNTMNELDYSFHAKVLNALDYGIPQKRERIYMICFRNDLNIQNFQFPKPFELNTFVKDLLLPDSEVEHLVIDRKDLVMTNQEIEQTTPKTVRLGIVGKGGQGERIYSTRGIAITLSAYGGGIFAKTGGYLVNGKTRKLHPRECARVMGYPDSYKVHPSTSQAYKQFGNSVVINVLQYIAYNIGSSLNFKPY
Test: stopped-flow absorbance, ternary complex with DNA
Type: binding
Settings: 100 µM AdoHcy; cognate GCGC/GMGC duplex; pH 7.4, 25 °C

Which “stopped-flow absorbance, ternary complex with DNA” value does the source give for `Nc1ncnc2c1ncn2[C@@H]1O[C@H](CSCC[C@H](N)C(=O)O)[C@@H](O)[C@H]1O` [AdoHcy] here?
Its value is “The remaining signal is regained upon addition of AdoHcy to the preformed M.HhaI–DNA complex”.
